In one assay the target is human PD-L1 (Homo sapiens (Human), UniProt Q9NZQ7). As to the kind of experiment: T cell activation luciferase reporter cell culture system (T Cell Activation Assay). The assay is classed as cell-based. To be noted: luciferase reporter assay; PD-L1 aAPC/CHO-K1 cells with PD-1 effector Jurkat T cells. For orientation: A reporter such as luciferase makes a cellular process visible.

In assay [1] the target is PD-L1 His protein / PD-1 Fc protein (Homo sapiens (Human), UniProt Q9NZQ7). As to the kind of experiment: HTRF Assay (PD-1/PD-L1 interaction). The format is binding. As to conditions: PD-L1 His 6 nM, PD-1 Fc 6 nM. (In TR-FRET formats the signal depends on donor and acceptor labels being close together.)
Chain of PD-L1 His protein / PD-1 Fc protein (Q9NZQ7 19-238): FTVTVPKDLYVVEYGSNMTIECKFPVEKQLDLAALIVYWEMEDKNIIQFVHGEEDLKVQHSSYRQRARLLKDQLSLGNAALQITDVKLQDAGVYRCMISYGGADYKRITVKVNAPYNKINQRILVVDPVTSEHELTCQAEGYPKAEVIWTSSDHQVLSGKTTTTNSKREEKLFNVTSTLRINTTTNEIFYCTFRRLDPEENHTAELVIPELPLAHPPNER

A value given as a limit tells only on which side of the number the result lay.

Chain of human PD-L1 (Q9NZQ7 19-290): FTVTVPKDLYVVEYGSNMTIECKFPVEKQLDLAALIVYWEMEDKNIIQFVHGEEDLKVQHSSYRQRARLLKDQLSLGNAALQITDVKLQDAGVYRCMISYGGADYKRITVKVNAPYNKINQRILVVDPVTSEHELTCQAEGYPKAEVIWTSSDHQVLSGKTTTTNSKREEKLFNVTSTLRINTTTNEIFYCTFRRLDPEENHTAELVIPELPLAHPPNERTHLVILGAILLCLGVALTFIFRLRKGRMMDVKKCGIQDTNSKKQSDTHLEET

Usually EC50 stands for the concentration that produces a half-maximal response. Read a low EC50 as an effect from little substance. By IC50 is commonly meant the concentration that gives 50% inhibition. In the case of `COc1cc(-c2nccc(-c3cccc(-c4ccc5c(OC)c(CNC6CCN(C(C)=O)CC6)cc(Cl)c5n4)c3Cl)c2Cl)ccc1CNC[C@@H]1CCC(=O)N1` [Example 241, (S)-5-(((4-(4-(3-(6-(((1-Acetylpiperidin-4-yl)amino)methyl)-8-chloro-5-methoxyquinolin-2-yl)-2-chlorophenyl)-3-chloropyridin-2-yl)-2-methoxybenzyl)amino)methyl)pyrrolidin-2-one], the EC50 on human PD-L1 was at least 10000 nM. The compound also yielded an IC50 in assay [1] of 14.3 nM.
At human PD-L1, `COc1nc(-c2cccc(-c3ccnc(-c4ccc5c(CN(C)CCO)nn(C)c5c4)c3Cl)c2Cl)ccc1CNC[C@@H]1CCC(=O)N1` [Example 247, (S)-5-((((6-(2-Chloro-3-(3-chloro-2-(3-(((2-hydroxyethyl)(methyl)amino)methyl)-1-methyl-1H-indazol-6-yl)pyridin-4-yl)phenyl)-2-methoxypyridin-3-yl)methyl)amino)methyl)pyrrolidin-2-one] showed an EC50 of 52.4 nM. The compound further displayed an IC50 in assay [1] of 6.74 nM.
Taken in the same sequence, the figures for `COc1nc(-c2ccnc(-c3cccc4c3CC[C@@H]4Oc3nc(OC)c(CNC4CCN(C(C)=O)CC4)cc3C(F)(F)F)c2Cl)ccc1CNC1CCN(C(C)=O)CC1` [Example 254, (S)-1-(4-(((6-((4-(5-(((1-Acetylpiperidin-4-yl)amino)methyl)-3′-chloro-6-methoxy-[2,4′-bipyridin]-2′-yl)-2,3-dihydro-1H-inden-1-yl)oxy)-2-methoxy-5-(trifluoromethyl)pyridin-3-yl)methyl)amino)piperidin-1-yl)ethan-1-one] were 148 nM and 94.3 nM.
The matching figures for `COc1nc(-c2cccc(-c3ccnc(-c4ccc5c(CNC6CCN(C(C)=O)CC6)nn(C)c5c4)c3Cl)c2Cl)ccc1CNC1CCN(C(C)=O)CC1` [Example 263, 1-(4-(((6-(3-(2-(3-(((1-Acetylpiperidin-4-yl)amino)methyl)-1-methyl-1H-indazol-6-yl)-3-chloropyridin-4-yl)-2-chlorophenyl)-2-methoxypyridin-3-yl)methyl)amino)piperidin-1-yl)ethan-1-one]: at least 10000 nM and 1.71 nM.
In the case of `COc1cc(-c2nccc(-c3cccc4c3CC[C@@H]4Oc3nc(OC)c(CNC[C@@H]4CCC(=O)N4)cc3C(F)(F)F)c2Cl)ccc1CNC[C@@H]1CCC(=O)N1` [Example 269, (S)-5-((((6-(((S)-4-(3-chloro-2-(3-methoxy-4-(((((S)-5-oxopyrrolidin-2-yl)methyl)amino)methyl)phenyl)pyridin-4-yl)-2,3-dihydro-1H-inden-1-yl)oxy)-2-methoxy-5-(trifluoromethyl)pyridin-3-yl)methyl)amino)methyl)pyrrolidin-2-one], on human PD-L1, the EC50 worked out at 5.54 nM. The compound further yielded an IC50 in assay [1] of 12.5 nM.
At human PD-L1, `COc1cc(-c2nccc(-c3cccc(-c4ccc(CNC[C@H](C)O)c(OC)n4)c3Cl)c2Cl)cc2c1CN(CC(N)=O)CC2` [Example 275, (S)-2-(6-(3-Chloro-4-(2-chloro-3-(5-(((2-hydroxypropyl)amino)methyl)-6-methoxypyridin-2-yl)phenyl)pyridin-2-yl)-8-methoxy-3,4-dihydroisoquinolin-2(1H)-yl)acetamide] registered an EC50 of at least 10000 nM. In assay [1], this compound had an IC50 of 5.36 nM.
At human PD-L1, `CNCc1ccc(-c2cccc(-c3ccnc(-c4ccc5c(CNC)cn(C)c5c4)c3Cl)c2Cl)nc1OC` [Example 276, 1-(6-(2-Chloro-3-(3-chloro-2-(1-methyl-3-((methylamino)methyl)-1H-indol-6-yl)pyridin-4-yl)phenyl)-2-methoxypyridin-3-yl)-N-methylmethanamine] returned an EC50 of at least 10000 nM. In addition, 1.04 nM corresponded to half-maximal inhibition in assay [1] (IC50).
`CNCc1ccc(-c2cccc(-c3ccnc(-c4ccc(CN5CC[C@H](C(=O)OC(C)C)C5)c(OC)c4)c3Cl)c2Cl)nc1OC` [Example 278, Isopropyl (S)-1-(4-(3-chloro-4-(2-chloro-3-(6-methoxy-5-((methylamino)methyl)pyridin-2-yl)phenyl)pyridin-2-yl)-2-methoxybenzyl)pyrrolidine-3-carboxylate]: on human PD-L1, a half-maximal response (EC50) required 258 nM. This compound yielded an IC50 in assay [1] of 404 nM.
At human PD-L1, `CNCc1ccc(-c2cccc(-c3ccnc(-c4ccc(CNCCC(=O)OC(C)C)c(OC)c4)c3Cl)c2Cl)nc1OC` [Example 279, Isopropyl 3-((4-(3-chloro-4-(2-chloro-3-(6-methoxy-5-((methylamino)methyl)pyridin-2-yl)phenyl)pyridin-2-yl)-2-methoxybenzyl)amino)propanoate] displayed an EC50 of 224 nM. The IC50 in assay [1] is 12.4 nM.
As to `CNCc1ccc(-c2cccc(-c3ccnc(-c4ccc(CNC[C@@H](O)CC(=O)OC(C)C)c(OC)c4)c3Cl)c2Cl)nc1OC` [Example 280, Isopropyl (S)-4-((4-(3-chloro-4-(2-chloro-3-(6-methoxy-5-((methylamino)methyl)pyridin-2-yl)phenyl)pyridin-2-yl)-2-methoxybenzyl)amino)-3-hydroxybutanoate], the EC50 at human PD-L1 worked out at 111 nM. The IC50 in assay [1] was 28.7 nM.
Taken in the same sequence, the figures for `CNCc1ccc(-c2cccc(-c3ccnc(-c4ccc(CN5CC6(CC(C(=O)OC(C)C)C6)C5)c(OC)c4)c3Cl)c2Cl)nc1OC` [Example 281, Isopropyl 2-(4-(3-chloro-4-(2-chloro-3-(6-methoxy-5-((methylamino)methyl)pyridin-2-yl)phenyl)pyridin-2-yl)-2-methoxybenzyl)-2-azaspiro[3.3]heptane-6-carboxylate] were 153 nM and 10.9 nM.
`COc1nc(-c2cccc(-c3ccnc(-c4ccc(CNC5CCN(C(C)=O)CC5)c(F)c4)c3Cl)c2Cl)ccc1CNC1CCN(C(C)=O)CC1` [Example 282, 1-(4-(((6-(3-(2-(4-(((1-Acetylpiperidin-4-yl)amino)methyl)-3-fluorophenyl)-3-chloropyridin-4-yl)-2-chlorophenyl)-2-methoxypyridin-3-yl)methyl)amino)piperidin-1-yl)ethan-1-one] came in with an EC50 at human PD-L1 of 85.3 nM. In assay [1], this compound yielded an IC50 of 1.56 nM.
On to `CNCc1ccc(-c2nccc(-c3cccc(-c4ccc(CNC)c(OC)n4)c3Cl)c2Cl)cc1F` [Example 283, 1-(6-(2-Chloro-3-(3-chloro-2-(3-fluoro-4-((methylamino)methyl)phenyl)pyridin-4-yl)phenyl)-2-methoxypyridin-3-yl)-N-methylmethanamine], for which the EC50 on human PD-L1 stood at 36.7 nM. This compound also showed an IC50 in assay [1] of 3.94 nM.
`COc1nc(-c2cccc(-c3ccnc(-c4ccc(CN5CC6(CNC(=O)C6)C5)c(F)c4)c3Cl)c2Cl)ccc1CN1CC2(CNC(=O)C2)C1` [Example 284, 2-((6-(2-Chloro-3-(3-chloro-2-(3-fluoro-4-((7-oxo-2,6-diazaspiro[3.4]octan-2-yl)methyl)phenyl)pyridin-4-yl)phenyl)-2-methoxypyridin-3-yl)methyl)-2,6-diazaspiro[3.4]octan-7-one] displayed an EC50 at human PD-L1 of 62.4 nM. Also, the IC50 in assay [1] worked out at 2.81 nM.
`COc1cc(-c2nccc(-c3cccc(-c4ccc(CNC5CCN(C(C)=O)CC5)c(OC)n4)c3Cl)c2Cl)cc(F)c1CNC1CCN(C(C)=O)CC1` [Example 285, 1-(4-(((6-(3-(2-(4-(((1-Acetylpiperidin-4-yl)amino)methyl)-3-fluoro-5-methoxyphenyl)-3-chloropyridin-4-yl)-2-chlorophenyl)-2-methoxypyridin-3-yl)methyl)amino)piperidin-1-yl)ethan-1-one] yielded an EC50 at human PD-L1 of 14.2 nM. Further, the IC50 in assay [1] is 0.716 nM.
`CNCc1ccc(-c2cccc(-c3ccnc(-c4cc(F)c(CNC)c(OC)c4)c3Cl)c2Cl)nc1OC` [Example 286, 1-(6-(2-Chloro-3-(3-chloro-2-(3-fluoro-5-methoxy-4-((methylamino)methyl)phenyl)pyridin-4-yl)phenyl)-2-methoxypyridin-3-yl)-N-methylmethanamine]: it took 15.4 nM to reach a half-maximal effect at human PD-L1 (EC50). Further, the IC50 in assay [1] came to 5.16 nM.
On human PD-L1, `COc1cc(-c2nccc(-c3cccc(-c4ccc(CN5CC6(CNC(=O)C6)C5)c(OC)n4)c3Cl)c2Cl)cc(F)c1CN1CC2(CNC(=O)C2)C1` [Example 287, 2-((6-(2-Chloro-3-(3-chloro-2-(3-fluoro-5-methoxy-4-((7-oxo-2,6-diazaspiro[3.4]octan-2-yl)methyl)phenyl)pyridin-4-yl)phenyl)-2-methoxypyridin-3-yl)methyl)-2,6-diazaspiro[3.4]octan-7-one] yielded an EC50 of 16.4 nM. For the same compound, half-maximal inhibition in assay [1] (IC50) required 4.67 nM.
On human PD-L1, `COc1nc(-c2cccc(-c3ccnc(-c4ccc5c(CN6CC7(CNC(=O)C7)C6)nn(C)c5c4)c3Cl)c2Cl)ccc1CNC[C@@H]1CCC(=O)N1` [Example 288, (S)-2-((6-(3-Chloro-4-(2-chloro-3-(6-methoxy-5-((((5-oxopyrrolidin-2-yl)methyl)amino)methyl)pyridin-2-yl)phenyl)pyridin-2-yl)-1-methyl-1H-indazol-3-yl)methyl)-2,6-diazaspiro[3.4]octan-7-one] registered an EC50 of 52.7 nM. Half-maximal inhibition in assay [1] (IC50) required 2.33 nM.
With `COc1nc(-c2cccc(-c3ccnc(-c4cc(Cl)c5c(c4)CCN(CC4CCN(C(C)=O)CC4)C5)c3Cl)c2Cl)ccc1CNC[C@@H]1CCC(=O)N1` [Example 289, (S)-5-((((6-(3-(2-(2-((1-Acetylpiperidin-4-yl)methyl)-8-chloro-1,2,3,4-tetrahydroisoquinolin-6-yl)-3-chloropyridin-4-yl)-2-chlorophenyl)-2-methoxypyridin-3-yl)methyl)amino)methyl)pyrrolidin-2-one], on human PD-L1, the midpoint of the response, the EC50, lay at 87.6 nM. The compound also had an IC50 in assay [1] of 2.95 nM.
`COc1cc(-c2nccc(-c3cccc(-c4cc5c(cn4)C(=O)N(CCNC[C@@H]4CCC(=O)N4)C5)c3Cl)c2Cl)ccc1CNC[C@@H]1CCC(=O)N1` [Example 290, 6-(2-Chloro-3-(3-chloro-2-(3-methoxy-4-(((((S)-5-oxopyrrolidin-2-yl)methyl)amino)methyl)phenyl)pyridin-4-yl)phenyl)-2-(2-((((S)-5-oxopyrrolidin-2-yl)methyl)amino)ethyl)-1,2-dihydro-3H-pyrrolo[3,4-c]pyridin-3-one] had an EC50 on human PD-L1 of 551 nM. Also, the IC50 in assay [1] worked out at 3.03 nM.

These data come from US20240246964A1 (Arbutus Biopharma Corporation, priority 2021, published 2024).
